{"source": "paper PMC3400326", "about": "(Pharmacogenomics and personalized medicine, 2011)", "key": {"[1]": {"biological_target": "SULT1A1 (Homo sapiens, UniProt P50225)", "sequence (P50225 whole entry)": "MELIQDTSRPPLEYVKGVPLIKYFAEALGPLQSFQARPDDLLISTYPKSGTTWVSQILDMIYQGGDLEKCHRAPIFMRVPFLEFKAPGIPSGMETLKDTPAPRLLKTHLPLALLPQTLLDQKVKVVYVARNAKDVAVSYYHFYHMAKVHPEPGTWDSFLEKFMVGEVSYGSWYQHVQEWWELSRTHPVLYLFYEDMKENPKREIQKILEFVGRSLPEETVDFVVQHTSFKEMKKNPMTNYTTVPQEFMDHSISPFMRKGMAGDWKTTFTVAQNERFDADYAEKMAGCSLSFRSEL", "assay": "intrinsic fluorescence titration", "format": "binding"}, "[2]": {"biological_target": "T1, SULT1E1 (Homo sapiens, UniProt P49888)", "T1 sequence (P49888 1-294)": "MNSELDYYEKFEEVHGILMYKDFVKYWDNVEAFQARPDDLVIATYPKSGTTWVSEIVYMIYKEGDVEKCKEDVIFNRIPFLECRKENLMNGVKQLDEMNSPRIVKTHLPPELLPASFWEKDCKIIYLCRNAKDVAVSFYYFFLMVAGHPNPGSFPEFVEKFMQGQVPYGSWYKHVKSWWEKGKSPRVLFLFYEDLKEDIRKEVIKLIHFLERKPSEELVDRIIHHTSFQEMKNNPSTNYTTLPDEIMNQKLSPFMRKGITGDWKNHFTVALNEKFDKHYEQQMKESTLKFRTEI", "assay": "intrinsic fluorescence titration", "format": "binding"}}, "data": [{"smiles": "C[C@]12CC[C@@H]3c4ccc(O)cc4C[C@@H](CCCCCCCCC[S+]([O-])CCCC(F)(F)C(F)(F)F)[C@H]3[C@@H]1CC[C@@H]2O", "note": "(some centres unmarked) [fulvestrant]", "values": [{"measurement": "Kd", "setting": "[1]", "value": "2300 ± 400", "unit": "nM"}, {"measurement": "Kd", "setting": "[2]", "value": "200 ± 20", "unit": "nM"}]}]}
